Source: PubChem BioAssay (NCI)
“And” between values parts separate entries of the source, which are not always exact repeats. Identical values can stand only once.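 Following 48 hours of exposure in 96-well plates, responses at five concentrations were used to interpolate endpoints linearly. GI50 = concentration required for 50% inhibition of growth. TGI denotes the concentration required for complete inhibition of growth.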

Tests used:
Experiment in all cases: NCI anticancer screen, dose series, 48 h
A549 NSCLC = test system: A549 NSCLC
OVCAR-8 ovarian = test system: OVCAR-8 ovarian
ACHN renal = test system: ACHN renal
SK-MEL-5 melanoma = test system: SK-MEL-5 melanoma
TK-10 renal = test system: TK-10 renal
RXF 393 renal = test system: RXF 393 renal
PC-3 prostate = test system: PC-3 prostate
SF-539 CNS = test system: SF-539 CNS
HOP-92 NSCLC = test system: HOP-92 NSCLC
NCI-H522 lung = test system: NCI-H522 lung

Row | SMILES | GI50 (A549 NSCLC) | TGI (A549 NSCLC) | GI50 (OVCAR-8 ovarian) [µM] | TGI (OVCAR-8 ovarian) | GI50 (ACHN renal) | TGI (ACHN renal) | GI50 (SK-MEL-5 melanoma) [µM] | TGI (SK-MEL-5 melanoma) | GI50 (TK-10 renal) | TGI (TK-10 renal) | GI50 (RXF 393 renal) | TGI (RXF 393 renal) | GI50 (PC-3 prostate) [µM] | TGI (PC-3 prostate) [µM] | GI50 (SF-539 CNS) | TGI (SF-539 CNS) | GI50 (HOP-92 NSCLC) | TGI (HOP-92 NSCLC) | GI50 (NCI-H522 lung) [µM] | TGI (NCI-H522 lung)
1 | Nc1c(C(=O)Nc2ccccn2)sc2nc3c(cc12)C(=O)CCC3 | 1.78 µM | > 100 µM | 6.52 | > 100 µM | 6.06 µM | > 100 µM | 0.444 | > 100 µM | 22.3 µM | > 100 µM | 1.11 µM | 8.88 µM | 1.43 | > 100 | 1.17 µM | 5.65 µM | 27.7 µM | > 100 µM | 0.595 | > 100 µM
2 | O=c1cccc(C#CC#C[C@@H]2O[C@H]2CO)o1 | 2.25 µM | 4.8 µM | 1.03 | 3.12 µM | 0.845 µM | 2.08 µM | 1.87 | 3.9 µM | 1.47 µM | 3.38 µM | 1.77 µM | 3.98 µM | 1.82 | 4.1 | 1.91 µM | 3.68 µM | 1.06 µM | 3.34 µM | 0.814 | 
3 | COc1cccc2c1O/C(=C\c1ccc([N+](=O)[O-])s1)C2=O | 3.29 µM | > 100 µM | 2.54 | > 24.9 µM | 2.79 µM | > 100 µM | 2.49 | > 100 µM | 3.16 µM | 8.83 µM | 2.6 µM | > 25.3 µM | 1.7 | > 21.3 | 3.08 µM | > 100 µM | 1.18 µM | 3.42 µM | 0.241 | 0.766 µM
4 | COc1c(C)c(OCC=C(C)C)cc(CO)c1CO |  | > 100 µM |  | > 100 µM |  | > 100 µM |  | 59.1 µM |  | > 100 µM |  | 78.2 µM |  | > 100 |  | > 100 µM |  | > 100 µM |  | > 100 µM
5 | COc1ccc(CNc2c3ccccc3nc3ccccc23)cc1F | 3.55 µM | 18 µM | 3.52 | 19.4 µM | 3.03 µM | 11.3 µM | 3.21 | 10.6 µM | 3.55 µM | 15.7 µM | 1.8 µM | 4.82 µM | 3.14 | 12 | 3.04 µM | 10.7 µM | 1.96 µM | 7.61 µM | 2.01 | 6.45 µM
6 | CCCCCCn1c(-c2ccc(C(=O)O/N=C(\N)c3ccc4c(c3)OCO4)cc2)nc(-c2ccccc2)c1-c1ccccc1 | 1.41 µM | 3.68 µM | 2.46 | 7.09 µM | 0.387 µM | 1.46 µM | 2.22 | 4.93 µM | 1.94 µM | 3.61 µM | 1.77 µM | 3.88 µM | 2.62 | 11.3 | 1.72 µM | 3.2 µM | 1.48 µM | 3.3 µM | 1.81 | 3.92 µM
7 | CCOC(=O)Nc1c(C)nc2ccccn12 | > 100 µM | > 100 µM | > 100 | > 100 µM | > 100 µM | > 100 µM | > 100 | > 100 µM | > 100 µM | > 100 µM | > 100 µM | > 100 µM | > 100 | > 100 | > 100 µM | > 100 µM | > 100 µM | > 100 µM | > 100 | > 100 µM
8 | C=CC12CCN(CC1)C(C(O)c1ccnc3ccc(OC)cc13)C2 (stereo unspecified) | > 100 µM | > 100 µM | > 100 | > 100 µM | > 100 µM | > 100 µM | 39.2 | > 100 µM | > 100 µM | > 100 µM | 80 µM | > 100 µM | > 100 | > 100 | > 100 µM | > 100 µM | 35.2 µM | > 100 µM | 47.8 | > 100 µM
9 | NC(=O)c1cc(I)ccc1NC(=O)/C=C/c1ccccc1 | 1.33 µM | > 100 µM | 1.18 | 27.8 µM | 3.15 µM | > 47.1 µM | 0.38 | 12.5 µM | 2.9 µM | 44.1 µM | 0.989 µM | 22.8 µM | 0.605 | > 100 | 0.36 µM | 1.53 µM | 17 µM | 97.7 µM | 1.07 | 
10 | COc1ccc2c(=O)oc3c(OC)cc(CCN(C)C)c4c(=O)oc1c2c34 | 21.3 µM and 8.46 µM | 37 µM and 20.2 µM |  | 30.7 µM and 17.2 µM | 14.8 µM and 5.71 µM | 28.1 µM and 11.8 µM |  | 24.7 µM and 14.7 µM | 20.2 µM and 8.68 µM | 37.1 µM and 16.7 µM | 18 µM and 7.95 µM | 35.2 µM and 16.8 µM |  | 29.4 | 22.8 µM and 6.89 µM | 37.5 µM and 14 µM | 21.5 µM and 8.25 µM | 39.6 µM and 15.2 µM |  | 25.6 µM and 13.9 µM
11 | Cc1cc(C(=O)CSC(=S)SC(C)(C)C)ccc1Cl |  | 50 µM |  | > 100 µM |  | 62.9 µM |  | 31.7 µM |  | 60 µM |  | 29 µM |  | 95.8 |  | 35.7 µM |  | 70.3 µM |  | 30.3 µM
12 | CCOC(=O)c1c(C)c2c(n1Cc1ccccc1)CSCC2=O | 30.6 µM | > 100 µM | 27.6 | > 100 µM | 18.8 µM | > 100 µM | 11.6 | 23.9 µM | 27.3 µM | 81.4 µM | 16.2 µM | 70.6 µM | 13.6 | 68.1 | 17.5 µM | 50.9 µM | 1.21 µM | 19.8 µM | 14.8 | 58.8 µM
13 | C[C@H](CCOc1cccc(CC(=O)O)c1)N(Cc1cccc(C(F)(F)F)c1Cl)CC(c1ccccc1)c1ccccc1 | 3.94 µM | 18.9 µM | 5.83 | 25.6 µM | 5.11 µM | 17 µM | 3.95 | 14.6 µM | 10.3 µM | 23.1 µM | 4.18 µM | 16.2 µM | 4.64 | 17.4 | 6.14 µM | 20.4 µM | 3.21 µM | 16.5 µM | 4.51 | 22.3 µM
14 | COC(=O)/C=C/c1cc(OC(C)=O)c2c(c1)C(C(=O)OC)C(c1ccc(OC(C)=O)c(OC(C)=O)c1)O2 (stereo unspecified) | 1.35 µM | > 56.7 µM | 0.224 | > 72.9 µM | 0.0779 µM | 35.5 µM | 0.0572 | 1.98 µM | 8.98 µM | > 93.2 µM | 0.167 µM | 55.2 µM | 0.371 | > 49 | 0.0674 µM | 2.41 µM | 0.35 µM | 24.8 µM | 0.0654 | 11.6 µM
15 | O=[N+]([O-])c1ccccc1N=Nc1c(O)[nH]c2c(Cl)cc(Cl)cc12 |  | > 100 µM |  | > 100 µM |  | 46.8 µM |  | > 100 µM |  | 96.2 µM |  | > 59.8 µM |  | > 100 |  | 50.2 µM |  | > 68.2 µM |  | > 100 µM
16 | O=C(O)c1ccc(CNCc2ccccc2)cc1 |  | > 100 µM |  | > 100 µM |  | > 100 µM |  | > 100 µM |  | > 100 µM |  | > 100 µM |  | > 100 |  | > 100 µM |  | > 100 µM |  | > 100 µM
17 | CCN(Cc1c(F)cccc1OC)c1ccc(CO)c(Cl)c1 | 2.35 µM | 23.1 µM | 12 | 50.2 µM | 16.8 µM | 44.6 µM | 11.9 | 24.2 µM |  | 0.0536 µM | 10.9 µM | 25.3 µM | 17.1 | 58.4 | 16.6 µM | 33.1 µM | 0.933 µM | 10 µM | 13 | 29.6 µM
18 | Nc1nc(Cl)nc2c1ncn2C1CC(O)C(CO)O1 (stereo unspecified) |  | > 100 µM |  | > 100 µM | 0.562 µM | > 100 µM |  | > 91.4 µM | 50.2 µM | > 100 µM |  | > 100 µM | > 100 | > 100 |  | 76.8 µM |  | 24.2 µM |  | > 100 µM
